Measurements taken from patent publication US20190224222A1, “METHOD OF INHIBITING QUORUM SENSING USING D-GALACTOSE” (Seoul National University R&DB Foundation, priority 2014, published 2019).

How the values were obtained:
[1] = tested on: F. nucleatum (Fn) biofilm; test: Fn biofilm formation induced by Fn AI-2, fluorescence staining (confocal); type: cell-based, F. nucleatum (ATCC 25586); details: D-rib or D-gal 200 mM, Fn AI-2 10% (v/v)
Method: (§1) Further, inhibitory effects of individual QSI candidates on Fn biofilm formation induced by Fn AI-2 were examined by fluorescence staining. 2 ml of Fn culture broth (the number of bacteria: 2×10^7/ml) was used, and Fn AI-2 was used in a volume of 10% (v/v) with respect to the total volume of a mixture with Fn culture broth. As the QSI candidates, 200 mM of D-rib or D-gal was used, and 20 μM of the furanone compound was used. Biofilms formed on the cover slip were stained with fluorescent materials using the live/dead-BacLight viability kit (Invitrogen, Grand Island, N.Y., USA) and observed using a confocal microscope (Carl Zeiss, LSM 700). […] Fluorescence intensities of the obtained individual fluorescence images were quantified using ZEN 2010 program of a confocal microscope, and shown in FIG. 3.

[2] = tested on: F. nucleatum (Fn) biofilm; test: Fn biofilm formation induced by Fn AI-2, crystal violet staining; type: cell-based, F. nucleatum (ATCC 25586); details: for OD590 nm: Fn + Fn AI-2 10% (v/v), sugar 2 mM, 48-72 h, smaller OD = more inhibition of biofilm, Fn/AI-2 control 1.5, Fn 0.46
Method: To test biofilm formation by Fn, a Fn culture broth (2 ml; a negative control group, the number of bacteria: 2×10^7/ml), a mixture of Fn culture broth (2 ml) and F. nucleatum AI-2 (purified from F. nucleatum secretary material of F. nucleatum culture broth using a C18 Sep-Pak reverse-phase column (Waters Co., Milford, Mass.); hereinafter, referred to as ‘Fn AI-2’; 10% (v/v) with respect to the total volume of the mixture with Fn culture broth), or a mixture of Fn culture broth (2 ml) and Fn AI-2 (10% (v/v) with respect to the total volume of the mixture with Fn culture broth) and each of QSI candidates was added to a 24-well plate with a glass slip (round, 12 mm radius), and cultured under anaerobic conditions for 48-72 hours. As the QSI candidates, sugars (D-rib, D-gal, D-Glu, D-Man, or D-ara) were used in an amount of 2 mM, and the furanone compound [(5Z)-4-bromo-5-(bromomethylene)-2(5H)-furanone] was used in an amount of 2 μM.
Biofilms formed on the cover slips were stained with 10% crystal violet [Tris(4-(dimethylamino)phenyl)methylium chloride] for 10 minutes, washed three times with PBS, and destained with 1 ml of acetone-alcohol (20:80, vol/vol). The optical density at 590 nm of the destaining solution containing crystal violet was measured using a microplate reader (a Wallac Victor3 microtiter, PerkinElmer Life Sciences, Waltham, Mass.). The smaller optical density (OD590) measured at 590 nm represents more inhibition of biofilm formation, that is, higher quorum sensing inhibitory effect of the used QSI candidate.

[3] = tested on: T. forsythia (Tf) biofilm; test: Tf biofilm formation induced by Fn AI-2, fluorescence staining (confocal); type: cell-based, T. forsythia (ATCC 43037); details: D-rib or D-gal 200 mM
Method: as §1, with “on Tf” for “on Fn”, “of Tf” for “of Fn”, “bacteria: 2×10^8/ml)” for “bacteria: 2×10^7/ml)”, “with Tf” for “with Fn”, “FIG. 9.” for “FIG. 3.”

[4] = tested on: T. forsythia (Tf) biofilm; test: Tf biofilm formation induced by Fn secretory material, transwell, crystal violet; type: cell-based; details: for OD590: Fn upper / Tf lower chamber, sugar 2 mM, 48-72 h, Fn/Tf control 0.55, Tf alone 0.17
Method: In order to examine efficacies of quorum sensing inhibitor (QSI) candidates on biofilm formation of periodontopathogenic bacteria which is induced by a secretory material of F. nucleatum (Fn), a test was performed using a transwell system. AI-2 naturally secreted by Fn is contained in the secretory material of Fn. Therefore, in the test using the transwell system, Fn AI-2 was not directly added to bacteria, but Fn was put in an upper chamber and Pg or Tf was put in a lower chamber. Biofilms cultured and formed in the presence or absence of QSI candidates were stained with crystal violet, followed by analysis. These conditions are to evaluate whether Pg or Tf biofilm formation is influenced by not a purified AI-2 but an AI-2-containing secretory material naturally secreted by Fn, and whether QSI candidates such as D-gal is able to inhibit the biofilm formation if the biofilm is then formed.
More specifically, the transwell system (24-well) has an upper chamber and a lower chamber which are separated from each other by a membrane of 0.4 μm. 500 μl of F. nucelatum (Fn) culture broth (the number of bacteria: 2×10^7 CFU/ml) was cultured in the upper chamber. A glass slip was placed in the lower chamber, and then the same number of P. gingivalis(Pg) or T. forsythia(Tf) was inoculated in 1 ml of medium and cultured for 48-72 hours. The same QSI candidates were added to the upper and lower chambers. As the QSI candidates, 2 mM of sugar (D-rib or D-gal) was used and 2 μM of the furanone compound [(5Z)-4-bromo-5-(bromomethylene)-2(5H)-furanone] was used. In order to examine whether biofilm formation of the bacteria in the lower chamber is influenced by Fn secretory material and QSI candidates, the biofilms formed on the glass slip were stained with crystal violet, and then quantified (see Examples 3 to 5).

| Structure (SMILES) | inhibitory effect on Fn biofilm formation, in words [1] | OD590 nm [2] | QSI inhibitory effect (inhibitory effect on Fn biofilm formation), in words ([2]; crystal violet, sugars 2 mM, compared to negative control Fn/AI-2) | inhibitory effect on Tf biofilm formation, in words [3] | inhibitory effect on Tf biofilm formation induced by Fn secretory material, in words ([4]; D-gal 2 mM compared to D-rib 2 mM) | OD590 [4] |
| --- | --- | --- | --- | --- | --- | --- |
| O=C[C@H](O)[C@@H](O)[C@@H](O)[C@H](O)CO [D-gal, D-galactose] | remarkably excellent inhibitory effect | 0.57 | excellent QSI inhibitory effect | most excellent inhibitory effect | remarkably excellent inhibitory effect, compared to D-rib | 0.36 |
| O=C[C@H](O)[C@H](O)[C@H](O)CO [D-rib, D-ribose, reference compound] | inhibited | 0.77 |  | inhibited |  | 0.69 |
